Experimental data from patent publication US11066368B2, “Process for the preparation and particle size reduction of pirfenidone” (Laurus Labs Limited, priority 2016, dated 2021).

What was measured:
[1] = Particle size distribution after wet milling with high speed homogenizer (Silverson L5M-A); format: physicochemical; conditions: water
Procedure: (§1) As used herein, the term “particle size distribution” is expressed in terms of D90, D50 and D10, which corresponds to the diameter of 90 percent by volume of the particles, 50 percent by volume of the particles and 10 percent by volume of the particles are present, respectively.
(§2) The particle size distribution of pirfenidone is measured utilizing: Instrument model: Malvern; Mastersizer 3000; particle refraction index of sample: 1.700; Absorption: 0.01 and Analysis model: general purpose, normal sensitivity, non-spherical particles.
Water (300 mL) and Pirfenidone (100 gr; Particle size distribution: D10: 1330 μm; D50: 1950 μm and D90: 2840 μm) were charged into reaction vessel at 25° C. to 35° C. and was placed High speed stirrer/Homogenizer into the reaction mass till required particle size was obtained at 25° C. to 35° C. Particle size distribution of the sample with different time interval was monitored by collecting the sample from reaction mass. After achieving the required particle size, stirred the reaction mixture for 30-60 min at 25° C. to 35° C. Further, the reaction mixture temperature was allowed to cool to 0° C. to 5° C. and stirred for 2-3 hrs at same temperature. Filter the solid and washed with the wet cake with chilled water (100 mL), dried the solid in an oven under vacuum at 60° C. for 4-6 hours.
The following examples were performed using the above described process with different rpm and time; the obtained results are tabulated below: […]

[2] = Particle size (D90) after ethyl acetate / n-heptane anti-solvent crystallisation; format: physicochemical
Procedure: The addition of antisolvent at different temperatures leads to formation of pirfenidone particles with different sizes; for instance: anti solvent addition at 0 to −10° C., preferably at −5±2° C. temperature forms small particles (D90: 50-100μ), at 0 to 10° C., preferably at 7±3° C. temperature forms particles of D90 at 100-150μ and at below 45° C. forms particles of D90 at 250-500μ.
(§3) Pirfenidone (83 g) was dissolved in ethyl acetate (425 mL), at 55-65° C., and then added to pre-cooled (−5±2° C.) n-Heptane (425 mL), over a period of 15-20 min, while maintaining temperature below 20° C. The suspension was stirred, at 0-5° C., for 1-2 h; filtered the product washed with chilled ethyl acetate (50 mL). The wet material was dried, at 60° C., under vacuum, for 6-8 h, to afford Pirfenidone as white colored powder. Yield: 65 g, HPLC purity 99.9%, PSD: (D90) 50-100μ.
as §3, with “Pirfenidone (81” for “Pirfenidone (83”, “pre-cooled (7±3°” for “pre-cooled (−5±2°”, “colored powder” for “colored powder.”, “Yield: 61” for “Yield: 65”, “(D90) 100-150μ.” for “(D90) 50-100μ.”
Pirfenidone (81 g) was dissolved in ethyl acetate (500 mL), at 50-55° C., and then added to pre-cooled (8±3° C.) n-Heptane (500 mL), over a period of 15-20 min, while maintaining temperature below 25° C. The suspension was stirred, at 5-10° C., for 1-2 h; filtered the product washed with chilled ethyl acetate (50 mL). The wet material was dried, at 60° C., under vacuum, for 6-8 h, to afford Pirfenidone as white colored powder Yield: 57 g, HPLC purity 99.9%, PSD: (D90) 150-250μ.
Pirfenidone (80 g) was dissolved in ethyl acetate (400 mL), at 55-65° C., and then added to n-Heptane (400 mL), over a period of 5-10 min, while maintaining temperature below 45° C. The suspension was stirred, at 25-30° C., for 1-2 h; filtered the product washed with chilled ethyl acetate (50 mL). The wet material was dried, at 60° C., under vacuum, for 6-8 h, to afford Pirfenidone as white colored powder, Yield: 55 g, HPLC purity 99.9%, PSD: (D90) 250-500μ.

[3] = Particle size distribution of unmilled input pirfenidone; format: physicochemical; conditions: input material before wet milling (Reference Example 5)
Procedure: as §1, §2
Dissolving crude Pirfenidone (50 g) in ethyl acetate (100 mL) at 65-75° C. and the reaction mass was treated with activated carbon (5 g) and filtered through a short bed of Hyflo. The filtrate was partially concentrated, under reduced pressure while maintain temperature below 60° C. The mixture was gradually allowed to cool to 30±5° C. and then stirred for another 30-60 min. The suspension was again allowed to cool to 0-5° C. and maintained for another 2-3 h, at the same temperature. The precipitated material was filtered and then dried at 60±5° C., for 6-8 h, to afford Pirfenidone as white colored powder (HPLC purity 99.9%; dimer content 0.03%). Yield: 45 g.

[4] = Minimum ignition energy test by MIKE3; format: physicochemical; conditions: dust cloud, dried at 50° C., sieved through 63μ
Procedure: This test was performed based on international test method VDI 2263 part 1.2.5 using MIKE3. Pirfenidone was dried at 50° C. under vacuum, sieved through 63μ sieve. The product was converted into a dust cloud in glass cylindrical tube with compressed air. The spark for ignition was provided with moving electrodes assembly at different energy levels from 1 mJ to 1000 mJ. The energy just sufficient to ignite the dust under ignition was determined. This ignition energy was then successively halved with variation of the dust concentration and the ignition delay time in a series of tests until no ignition takes place in at least 10 successive experiments. The minimum ignition energy MIE lies between the lowest energy value at which ignition occurred and at the energy value at which no ignition observed for 10 successive experiments. The recommendations for interpreting MIE results are based on energy levels available on MIKE 3 apparatus. According to usual practice, MIE can be ranked as follow: […]

[5] = milled through a loop mill, US 8,519,140; cited from earlier work
[6] = 2000 RPM, stirring time 120 min
[7] = 2000 RPM, stirring time 240 min

- PSD D10 ([1]; 2000 RPM, stirring time 30 min): 24 μm
- PSD D50 ([1]; 2000 RPM, stirring time 30 min): 82 μm
- PSD D90 ([1]; 2000 RPM, stirring time 30 min): 230 μm
- PSD D10 ([1]; 2000 RPM, stirring time 60 min): 24 μm
- PSD D50 ([1]; 2000 RPM, stirring time 60 min): 88 μm
- PSD D90 ([1]; 2000 RPM, stirring time 60 min): 200 μm
- PSD D10 [1, 6]: 21 μm
- PSD D50 [1, 6]: 75 μm
- PSD D90 [1, 6]: 165 μm
- PSD D10 [1, 7]: 21 μm
- PSD D50 [1, 7]: 71 μm
- PSD D90 [1, 7]: 154 μm
- PSD D10 ([1]; 5000 RPM, stirring time 60 min): 17 μm
- PSD D50 ([1]; 5000 RPM, stirring time 60 min): 48 μm
- PSD D90 ([1]; 5000 RPM, stirring time 60 min): 108 μm
- PSD D10 ([1]; 7000 RPM, stirring time 60 min): 13 μm
- PSD D50 ([1]; 7000 RPM, stirring time 60 min): 42 μm
- PSD D90 ([1]; 7000 RPM, stirring time 60 min): 91 μm
- PSD: (D90) ([2]; Example 5: ethyl acetate solution, n-heptane anti-solvent at −5±2° C.): 50-100 μ
- PSD: (D90) ([2]; Example 6: ethyl acetate solution, n-heptane anti-solvent at 7±3° C.): 100-150 μ
- PSD: (D90) ([2]; Example 7: ethyl acetate solution, n-heptane anti-solvent at 8±3° C., temperature below 25° C.): 150-250 μ
- PSD: (D90) ([2]; Example 8: ethyl acetate solution, n-heptane anti-solvent, temperature below 45° C.): 250-500 μ
- Particle size distribution D10 [3]: 1330 μm
- Particle size distribution D50 [3]: 1950 μm
- Particle size distribution D90 [3]: 2840 μm
- Es [4]: 1.7 mJ
- Minimum ignition energy MIE [4]: 1.7 mJ
Compound: Cc1ccc(=O)n(-c2ccccc2)c1 [Pirfenidone, 5-methyl-1-phenyl-2-1(H)-pyridone]
- particle size [5]: less than 150 μm
